Assay results from patent US20100331722A1, “Device and method for assessing operant facial pain” (priority 2004, published 2010).
“Also recorded” adds a separate entry of the source.

Tested on: orofacial inflammatory pain
Assay: thermal operant orofacial pain test after carrageenan-induced orofacial inflammation
Assay type: in vivo, Male Sprague Dawley rats
Experimental: General. Male Sprague Dawley rats (200-300 g, N=18) were lightly anesthetized using isoflurane (1-2.5%, inhalation) and their hair was bilaterally removed (FIG. 1) from the orofacial region using clippers, followed by depilatory cream 1 day prior to behavioral testing. Excess cream was removed with a moistened paper towel to minimize skin irritation. Rats were food fasted for 12-15 hours prior to each testing session and following each session were provided with standard food chow. Animals were tested at the same time of the day and a recovery day from the fasting was included between the testing sessions to minimize nutritional differences from their normal food routine. Water was made available ad libitum before and after testing sessions and animal weight was recorded daily. The animals were then brought into the behavioral procedure room 1 hour prior to testing and allowed to acclimate to the temperature and ambient noise of the room. Animal testing procedures and general handling complied with the ethical guidelines and standards established by the Institutional Animal Care and Use Committee at the University of Florida and all procedures complied with the Guide for Care and Use of Laboratory Animals (Council, 1996).
Thermal Testing. A testing cage (20.3 cm W×20.3 cm D×16.2 cm H) with acrylic walls was constructed with an opening in one wall (4×6 cm) which was lined with grounded metal (aluminum) tubing. The tubing served as a thermode when connected to a water pump (Model RTE110B, NES Laboratories, Inc.) via flexible polyethylene tubing through which heated water (range: 37.7-57.2° C.) was circulated (FIGS. 2A and 2B). A standard rodent watering bottle containing a diluted (1:2 with water) sweetened condensed milk solution (Nestle Carnation Company, room temperature) was mounted outside the cage. The circulating water pump was activated and the appropriate temperature was set prior to testing the animals. The room temperature was maintained at 22±1° C. for all behavioral tests.
Unrestrained animals were placed separately in a testing cage, and the data acquisition system was activated (WinDaq Lite Data Acq DI-194, DATAQ Instruments, Inc). The bottle was then positioned in proximity to the cage such that the animal was allowed access to the reward bottle when simultaneously contacting the thermode with its face. The metal spout on the watering bottle was connected to a 13-volt DC power supply and, in series, to a multi-channel data acquisition module (WinDaq Lite Data Acq DI-194, DATAQ Instruments, Inc.). When the rat drank from the water bottle, the skin on its shaved face contacted the grounded thermode, and the animal's tongue contacted the metal spout on the water bottle, completing an electrical circuit (FIG. 2A). The bottle position was adjusted horizontally and vertically to facilitate contact of the thermode within the same shaved area of the face for each animal (FIG. 2B). The closed circuit was registered in the computer and data were collected at 60 Hz for the entire length of the experiment. Each spout contact was recorded as a ‘licking’ event. A separate circuit was established from the metal thermode to the animal by grounding the floor with an aluminum sheet for recording of ‘facial contact’ events (FIG. 3). The latter circuit was necessary to determine if the animal made an attempt at the reward bottle but was discouraged by the temperature of the thermode. The duration of each facial contact and the total number of events (licking, facial contact) were recorded. The investigator monitored online data acquisition to ensure that each recorded licking event from the first circuit corresponded to a recorded facial contact on the tubing (the second circuit). […]

[1] = one animal, retested 30 minutes after morphine 0.5 mg/kg s.c., post-inflammation

Compound | effect on inflammatory hyperalgesia (operant outcome measures) (morphine 0.5 mg/kg s.c. 30 minutes prior to testing, 2.5 hours post-carrageenan, 45.5° C., N=6) | operant outcome measures of morphine-treated inflamed animals versus normal animals (morphine-treated animals tested at 45.5° C., all measures except facial contact events) | intake (post-morphine) (one animal, retested 30 minutes after morphine 0.5 mg/kg s.c., given after the 3 hours post-inflammation trial, 30-minute operant trial) | facial contact duration (post-morphine) [1] | facial contacts (post-morphine) [1] | licking events (post-morphine) [1] | ratio facial duration/facial contact (post-morphine) [1] | ratio licking/contact events (post-morphine) [1] | operant responses after morphine, pain indices (FIG. 7) (single animal, repeated testing following carrageenan, before and after morphine) | effect of carrageenan inflammation on operant outcome measures (carrageenan 6 mg s.c. mid-cheek bilaterally, tested 3 hours post-inflammation at 45.5° C., all measures except facial contact events (FIG. 6))
CN1CC[C@]23c4c5ccc(O)c4O[C@H]2[C@@H](O)C=C[C@H]3[C@H]1C5 [morphine] | all but one of these effects was completely reversed; also recorded: completely blocked | comparable to normal animals tested at 37.7 °C | 17.8 g | 634 s | 309 | 3582 | 2.05 | 11.6 | analgesic response | 
carrageenan |  |  |  |  |  |  |  |  |  | significant reduction
